Results published in ChEMBL document CHEMBL5465560, “Selectivity Literature for EUbOPEN Chemogenomic Library” (2024).
Blank lines part the entries; values can stand above or below the compound they belong to.

Experiments:
[1] = target: Ribosomal protein S6 kinase alpha-6 (Homo sapiens, UniProt Q9UK32); assay: Selectivity interaction (KinomeScan (DiscoverX)) EUB0000595a RPS6KA6; conditions: at 10 µM
[2] = target: Protein arginine N-methyltransferase 6 (Homo sapiens, UniProt Q96LA8); conditions: at 1 µM
Chain of Protein arginine N-methyltransferase 6 (Q96LA8 whole entry, looked up): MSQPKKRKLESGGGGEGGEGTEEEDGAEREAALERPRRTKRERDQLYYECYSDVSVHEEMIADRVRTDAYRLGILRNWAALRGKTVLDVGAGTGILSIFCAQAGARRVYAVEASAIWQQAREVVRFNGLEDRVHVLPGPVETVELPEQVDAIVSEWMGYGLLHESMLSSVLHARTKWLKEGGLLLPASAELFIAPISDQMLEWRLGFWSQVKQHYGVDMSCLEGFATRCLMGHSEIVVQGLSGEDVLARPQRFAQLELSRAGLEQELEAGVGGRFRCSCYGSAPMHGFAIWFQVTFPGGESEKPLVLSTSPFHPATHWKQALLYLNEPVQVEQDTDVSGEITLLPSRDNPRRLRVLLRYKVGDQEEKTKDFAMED

[3] = target: MAP kinase-activated protein kinase 2 (Homo sapiens, UniProt P49137); assay: Selectivity interaction (KinomeScan (DiscoverX)) EUB0000695a MAPKAPK2; conditions: at 100 nM
Chain of MAP kinase-activated protein kinase 2 (P49137 whole entry, looked up): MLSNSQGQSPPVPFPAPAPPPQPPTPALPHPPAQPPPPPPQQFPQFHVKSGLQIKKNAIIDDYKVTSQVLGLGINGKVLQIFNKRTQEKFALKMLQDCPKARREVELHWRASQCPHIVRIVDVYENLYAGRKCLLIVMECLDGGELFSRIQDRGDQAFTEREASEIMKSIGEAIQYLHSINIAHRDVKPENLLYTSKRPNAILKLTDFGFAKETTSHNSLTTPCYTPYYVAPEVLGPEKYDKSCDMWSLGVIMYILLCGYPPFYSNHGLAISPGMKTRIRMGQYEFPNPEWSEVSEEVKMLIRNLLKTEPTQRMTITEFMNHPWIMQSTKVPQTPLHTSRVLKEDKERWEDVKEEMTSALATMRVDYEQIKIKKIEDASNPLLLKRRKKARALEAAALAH

[4] = target: T1, Serine/threonine-protein kinase RIO3 (Homo sapiens) (UniProt O14730); assay: Selectivity interaction (KinomeScan (DiscoverX)) EUB0000666a RIOK3; conditions: at 10 µM
T1 sequence (whole entry): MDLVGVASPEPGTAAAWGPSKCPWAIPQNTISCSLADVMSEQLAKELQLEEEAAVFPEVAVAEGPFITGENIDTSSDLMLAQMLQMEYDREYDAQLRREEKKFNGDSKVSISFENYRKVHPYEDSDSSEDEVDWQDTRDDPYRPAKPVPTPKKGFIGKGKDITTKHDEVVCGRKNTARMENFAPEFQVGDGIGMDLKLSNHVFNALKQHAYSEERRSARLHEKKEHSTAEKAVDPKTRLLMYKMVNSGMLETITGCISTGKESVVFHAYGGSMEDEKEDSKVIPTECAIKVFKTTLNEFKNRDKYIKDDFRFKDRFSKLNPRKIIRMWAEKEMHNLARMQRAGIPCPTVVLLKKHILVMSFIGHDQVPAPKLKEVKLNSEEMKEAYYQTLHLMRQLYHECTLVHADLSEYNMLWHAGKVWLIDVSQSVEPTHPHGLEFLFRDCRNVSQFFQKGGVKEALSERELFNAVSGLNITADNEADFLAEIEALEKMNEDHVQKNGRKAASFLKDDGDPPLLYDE

[5] = target: Epithelial discoidin domain-containing receptor 1 (Homo sapiens) (UniProt Q08345); conditions: at 10 µM
[6] = target: Tyrosine-protein kinase JAK1 (Homo sapiens, UniProt P23458); conditions: at 10 µM
Chain of Tyrosine-protein kinase JAK1 (P23458 whole entry): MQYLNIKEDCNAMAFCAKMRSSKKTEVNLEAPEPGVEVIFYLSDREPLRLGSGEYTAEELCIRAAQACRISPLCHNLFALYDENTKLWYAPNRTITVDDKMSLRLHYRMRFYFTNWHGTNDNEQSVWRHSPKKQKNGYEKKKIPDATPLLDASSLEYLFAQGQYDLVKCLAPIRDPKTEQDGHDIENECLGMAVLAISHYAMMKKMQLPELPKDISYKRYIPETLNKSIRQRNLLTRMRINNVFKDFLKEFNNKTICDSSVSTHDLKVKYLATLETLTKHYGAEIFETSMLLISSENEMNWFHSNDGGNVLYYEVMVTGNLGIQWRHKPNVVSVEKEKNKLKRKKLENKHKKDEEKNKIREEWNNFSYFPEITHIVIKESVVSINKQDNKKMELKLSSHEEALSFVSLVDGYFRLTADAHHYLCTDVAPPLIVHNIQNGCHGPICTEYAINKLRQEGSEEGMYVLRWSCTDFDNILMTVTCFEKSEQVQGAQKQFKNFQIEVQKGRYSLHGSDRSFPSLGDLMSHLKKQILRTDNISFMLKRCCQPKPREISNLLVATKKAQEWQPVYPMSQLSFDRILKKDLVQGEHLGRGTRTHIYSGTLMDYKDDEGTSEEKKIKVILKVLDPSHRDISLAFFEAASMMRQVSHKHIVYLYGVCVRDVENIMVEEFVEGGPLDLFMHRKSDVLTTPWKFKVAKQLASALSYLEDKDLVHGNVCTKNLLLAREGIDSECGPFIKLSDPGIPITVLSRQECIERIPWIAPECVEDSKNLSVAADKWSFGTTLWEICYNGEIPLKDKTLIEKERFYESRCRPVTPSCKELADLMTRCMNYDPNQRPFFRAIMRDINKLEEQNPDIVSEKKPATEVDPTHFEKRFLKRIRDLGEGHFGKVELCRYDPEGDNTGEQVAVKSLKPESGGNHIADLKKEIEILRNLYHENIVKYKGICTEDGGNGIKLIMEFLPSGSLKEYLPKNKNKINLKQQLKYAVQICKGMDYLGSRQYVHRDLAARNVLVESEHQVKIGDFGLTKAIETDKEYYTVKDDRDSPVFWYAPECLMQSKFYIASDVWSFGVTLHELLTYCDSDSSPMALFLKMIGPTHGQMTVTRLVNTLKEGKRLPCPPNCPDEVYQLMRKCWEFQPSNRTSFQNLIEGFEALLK

[7] = target: T2, Serine/threonine-protein kinase LATS1 (Homo sapiens) (UniProt O95835); conditions: at 10 µM
T2 sequence (whole entry): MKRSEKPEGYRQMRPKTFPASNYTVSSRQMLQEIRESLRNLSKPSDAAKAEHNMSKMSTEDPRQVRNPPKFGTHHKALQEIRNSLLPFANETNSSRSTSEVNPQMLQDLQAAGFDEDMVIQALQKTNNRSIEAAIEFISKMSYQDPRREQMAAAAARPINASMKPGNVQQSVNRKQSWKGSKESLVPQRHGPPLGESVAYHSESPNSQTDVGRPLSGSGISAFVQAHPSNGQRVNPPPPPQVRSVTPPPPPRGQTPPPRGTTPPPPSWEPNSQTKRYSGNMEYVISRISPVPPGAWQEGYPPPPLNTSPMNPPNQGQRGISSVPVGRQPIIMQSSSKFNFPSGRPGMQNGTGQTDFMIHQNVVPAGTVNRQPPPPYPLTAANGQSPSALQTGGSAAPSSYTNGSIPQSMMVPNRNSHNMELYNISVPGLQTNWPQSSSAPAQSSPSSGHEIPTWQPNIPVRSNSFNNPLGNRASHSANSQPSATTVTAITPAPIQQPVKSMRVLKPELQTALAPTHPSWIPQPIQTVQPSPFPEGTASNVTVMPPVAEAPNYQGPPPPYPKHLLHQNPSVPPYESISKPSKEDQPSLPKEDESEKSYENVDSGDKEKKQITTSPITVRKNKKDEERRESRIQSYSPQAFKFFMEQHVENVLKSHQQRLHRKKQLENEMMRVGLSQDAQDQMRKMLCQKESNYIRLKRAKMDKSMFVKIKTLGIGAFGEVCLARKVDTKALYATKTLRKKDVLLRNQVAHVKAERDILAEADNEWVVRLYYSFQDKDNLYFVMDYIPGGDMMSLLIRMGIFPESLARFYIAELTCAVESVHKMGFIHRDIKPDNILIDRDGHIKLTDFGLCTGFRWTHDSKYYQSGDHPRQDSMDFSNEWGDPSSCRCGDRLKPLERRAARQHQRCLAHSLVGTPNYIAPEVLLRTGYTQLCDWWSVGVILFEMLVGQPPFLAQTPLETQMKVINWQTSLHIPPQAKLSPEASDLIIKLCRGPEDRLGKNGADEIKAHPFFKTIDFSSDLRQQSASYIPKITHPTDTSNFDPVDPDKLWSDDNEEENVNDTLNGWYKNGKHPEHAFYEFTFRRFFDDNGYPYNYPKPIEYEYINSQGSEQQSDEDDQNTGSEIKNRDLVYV

[8] = target: Serine/threonine-protein kinase MARK1 (Homo sapiens) (UniProt Q9P0L2); assay: Selectivity interaction (Upstate Kinase Profiler service (Millipore)) EUB0000056c MARK1; conditions: at 1 µM
Chain of Serine/threonine-protein kinase MARK1 (Homo sapiens) (Q9P0L2 whole entry, looked up): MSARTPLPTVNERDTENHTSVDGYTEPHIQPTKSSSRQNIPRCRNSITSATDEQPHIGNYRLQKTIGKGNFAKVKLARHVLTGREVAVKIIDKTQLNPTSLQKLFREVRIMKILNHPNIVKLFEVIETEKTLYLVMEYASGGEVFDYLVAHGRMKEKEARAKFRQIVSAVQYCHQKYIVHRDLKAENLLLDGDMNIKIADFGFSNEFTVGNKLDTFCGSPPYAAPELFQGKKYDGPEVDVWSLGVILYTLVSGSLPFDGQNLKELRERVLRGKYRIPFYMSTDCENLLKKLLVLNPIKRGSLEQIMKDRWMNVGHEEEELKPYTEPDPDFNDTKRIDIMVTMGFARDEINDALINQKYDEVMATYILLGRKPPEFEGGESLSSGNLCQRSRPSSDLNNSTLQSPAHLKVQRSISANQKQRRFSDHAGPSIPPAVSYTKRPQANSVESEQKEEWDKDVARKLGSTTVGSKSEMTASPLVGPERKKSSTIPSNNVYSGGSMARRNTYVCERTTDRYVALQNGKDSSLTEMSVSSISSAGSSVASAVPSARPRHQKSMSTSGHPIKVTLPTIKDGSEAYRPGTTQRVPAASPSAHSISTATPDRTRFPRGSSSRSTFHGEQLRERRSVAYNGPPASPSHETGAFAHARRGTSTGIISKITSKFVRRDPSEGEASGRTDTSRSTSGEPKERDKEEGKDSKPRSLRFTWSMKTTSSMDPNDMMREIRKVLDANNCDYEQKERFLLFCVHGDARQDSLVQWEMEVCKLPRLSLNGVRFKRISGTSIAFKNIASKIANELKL

[9] = target: BDNF/NT-3 growth factors receptor (Homo sapiens) (UniProt Q16620); assay: Selectivity interaction (ProQinase) EUB0000171b NTRK2
Chain of BDNF/NT-3 growth factors receptor (Homo sapiens) (Q16620 32-822 limits assumed): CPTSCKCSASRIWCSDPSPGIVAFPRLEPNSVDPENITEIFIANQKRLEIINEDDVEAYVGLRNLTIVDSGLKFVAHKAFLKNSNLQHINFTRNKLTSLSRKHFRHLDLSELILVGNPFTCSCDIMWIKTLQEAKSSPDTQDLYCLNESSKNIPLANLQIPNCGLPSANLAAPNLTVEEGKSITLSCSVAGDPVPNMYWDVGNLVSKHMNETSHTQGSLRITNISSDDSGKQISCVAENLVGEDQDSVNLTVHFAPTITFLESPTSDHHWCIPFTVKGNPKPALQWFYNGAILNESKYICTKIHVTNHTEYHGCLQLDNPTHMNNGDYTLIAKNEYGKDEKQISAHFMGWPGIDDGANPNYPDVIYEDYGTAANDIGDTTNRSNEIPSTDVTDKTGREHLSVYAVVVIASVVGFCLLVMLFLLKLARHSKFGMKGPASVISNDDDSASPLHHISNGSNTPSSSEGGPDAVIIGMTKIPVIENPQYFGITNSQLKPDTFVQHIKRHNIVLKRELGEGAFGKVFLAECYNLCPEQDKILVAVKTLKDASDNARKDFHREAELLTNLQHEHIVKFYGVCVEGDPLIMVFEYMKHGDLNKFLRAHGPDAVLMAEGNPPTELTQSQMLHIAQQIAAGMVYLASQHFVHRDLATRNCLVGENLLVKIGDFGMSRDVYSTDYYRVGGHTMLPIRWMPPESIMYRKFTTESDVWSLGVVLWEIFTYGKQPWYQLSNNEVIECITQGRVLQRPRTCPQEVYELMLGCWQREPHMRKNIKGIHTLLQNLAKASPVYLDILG

[10] = target: T3, MAP kinase-activated protein kinase 5 (Homo sapiens) (UniProt Q8IW41); assay: Selectivity interaction (Kinase panel (Eurofins)) EUB0001564a MAPKAPK5; conditions: at 1 µM
T3 sequence (whole entry): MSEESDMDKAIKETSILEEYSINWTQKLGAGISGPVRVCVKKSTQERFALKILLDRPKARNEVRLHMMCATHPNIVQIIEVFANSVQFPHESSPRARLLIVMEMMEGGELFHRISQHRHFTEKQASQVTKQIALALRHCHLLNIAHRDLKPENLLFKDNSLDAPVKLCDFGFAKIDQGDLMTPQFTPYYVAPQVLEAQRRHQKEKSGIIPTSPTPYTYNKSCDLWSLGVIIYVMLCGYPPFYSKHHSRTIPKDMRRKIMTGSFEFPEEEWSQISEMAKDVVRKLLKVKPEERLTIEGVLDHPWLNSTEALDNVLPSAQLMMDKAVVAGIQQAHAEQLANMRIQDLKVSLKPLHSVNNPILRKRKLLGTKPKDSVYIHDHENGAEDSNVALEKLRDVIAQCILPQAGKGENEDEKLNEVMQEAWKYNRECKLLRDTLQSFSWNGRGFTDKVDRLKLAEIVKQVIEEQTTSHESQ

[11] = target: Tyrosine-protein kinase Lyn (Homo sapiens, UniProt P07948); assay: Selectivity interaction (ActivX KiNativ screen (kinase selectivity in THP-1 cell lysates)) EUB0000639a LYN; type: subcellular; conditions: lysate, at 0.01 µM
Chain of Tyrosine-protein kinase Lyn (P07948 2-512 limits assumed): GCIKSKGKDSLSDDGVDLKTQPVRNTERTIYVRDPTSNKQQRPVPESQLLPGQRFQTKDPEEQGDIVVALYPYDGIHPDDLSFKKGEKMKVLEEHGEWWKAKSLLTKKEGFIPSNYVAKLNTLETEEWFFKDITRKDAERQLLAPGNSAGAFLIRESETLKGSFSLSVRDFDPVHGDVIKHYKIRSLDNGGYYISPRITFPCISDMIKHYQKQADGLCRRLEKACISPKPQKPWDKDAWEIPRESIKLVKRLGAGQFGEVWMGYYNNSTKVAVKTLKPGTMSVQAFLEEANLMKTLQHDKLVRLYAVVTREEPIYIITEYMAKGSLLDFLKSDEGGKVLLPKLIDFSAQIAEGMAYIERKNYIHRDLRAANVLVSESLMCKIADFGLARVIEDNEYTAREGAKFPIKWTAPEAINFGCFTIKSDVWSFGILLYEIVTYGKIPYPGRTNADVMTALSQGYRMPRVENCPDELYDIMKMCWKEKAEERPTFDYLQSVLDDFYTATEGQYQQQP

Chain of Ribosomal protein S6 kinase alpha-6 (Q9UK32 whole entry): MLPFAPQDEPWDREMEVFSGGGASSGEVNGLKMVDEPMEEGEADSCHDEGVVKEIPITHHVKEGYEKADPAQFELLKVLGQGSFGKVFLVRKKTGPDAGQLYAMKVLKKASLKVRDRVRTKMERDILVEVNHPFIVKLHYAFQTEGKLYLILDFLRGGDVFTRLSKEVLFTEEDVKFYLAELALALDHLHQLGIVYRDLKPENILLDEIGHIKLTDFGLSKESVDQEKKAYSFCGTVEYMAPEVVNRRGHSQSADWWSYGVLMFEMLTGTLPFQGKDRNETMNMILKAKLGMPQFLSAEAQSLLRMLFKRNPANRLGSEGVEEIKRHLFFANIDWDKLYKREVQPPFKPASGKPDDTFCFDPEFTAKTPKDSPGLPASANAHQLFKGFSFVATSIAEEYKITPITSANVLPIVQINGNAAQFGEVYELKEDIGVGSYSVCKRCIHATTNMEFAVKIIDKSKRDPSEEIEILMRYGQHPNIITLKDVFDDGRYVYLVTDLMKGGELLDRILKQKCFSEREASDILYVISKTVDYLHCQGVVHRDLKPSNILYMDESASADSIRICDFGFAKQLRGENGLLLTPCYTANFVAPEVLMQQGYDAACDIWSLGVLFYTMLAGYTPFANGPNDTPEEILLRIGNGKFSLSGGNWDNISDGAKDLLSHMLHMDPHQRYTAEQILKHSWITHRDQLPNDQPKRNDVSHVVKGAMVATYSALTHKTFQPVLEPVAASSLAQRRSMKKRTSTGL

Compound: COCC(=O)NC/C=C/c1ccc2ncnc(Nc3ccc(Oc4ccc(C)nc4)c(C)c3)c2c1 [CP-724714]
% of control [1]: 88%

Compound: CNCCN1CCC(c2cc(CN(C)C(=O)c3cccc(Oc4ccccc4)c3)ccn2)CC1
% activity [2]: > 90%

Compound: Cc1cc(F)c(C(=O)Nc2cccc(-c3nncn3C(C)C)n2)cc1-n1cnc(C2CC2)c1
% of control [3]: 57%

Compound: O=C(NOC[C@H](O)CO)c1ccc(F)c(F)c1Nc1ccc(I)cc1F
% of control [4]: 100%

Compound: Cc1cc([C@@H](C)Nc2ccccc2C(=O)O)c2nc(N3CCOCC3)cc(=O)n2c1 [AZD-6482]
% of control [5]: 100%
% of control [6]: 100%
% of control [7]: 100%

Compound: CC[C@@H](Nc1c(C#N)c(-c2ccc(-c3cccc(C)c3F)cc2)nc2cnccc12)C(=O)O [BAY-091]
% of inhibition [10]: 23.6%

The remaining lines, values ahead:

% of inhibition [8]: 5%
Compound: Cc1ccc(-c2ccc3c(ccc4sc5c(c43)NC[C@@H](C)NC5=O)n2)cn1

% of control ([9]; at 1 µM): 89%
% of control ([9]; at 5 µM): 81%
Compound: C=CC(=O)Nc1cccc(C(=O)Nc2ccc(Nc3cc(-c4[nH]c(SC)nc4C)ccn3)cc2)c1

% of inhibition [11]: 5.3%
Compound: CC[C@@H]1[C@H](F)C(=O)N[C@@H]1COc1nccc2cc(C(N)=O)c(OC)cc12 [ZIMLOVISERTIB]
